Reference: patent publication US10610555B2, “Method for alleviating osteoarthritis by using composite (HL-Joint 100) of achyranthes bidentata, eucommin ulmoides oliver and pomegranate extracts, which has antiinflammatory effect caused by COX2 and PGE2 inhibition, cartilage protective effect caused by MMP-2 and -9 inhibition and cartilage …” (HLSCIENCE CO., LTD., priority 2015, dated 2020)

Legend:
Assay type in all cases: in vivo
[1] = test system: rats with surgically-induced osteoarthritis (OA); assay: Osteoarthritis rat model: knee joint thickness; conditions: 200 mg/kg oral (diclofenac 2 mg/kg s.c.); vs OA control group
Method: (§1) The osteoarthritis-improving effect of the single or mixed formula of the pomegranate concentrate powder (PCP), the eucommia bark water extract powder (EC) and the achyranthis radix water extract powder (AR) was evaluated. As the representative osteoarthritis (OA) experimental animal model, rats with osteoarthritis (OA) induced by anterior cruciate ligament transaction and partial medial meniscectomy were used [Kim et al., 2012; Kang et al., 2014a; Moon et al., 2014; Choi et al., 2015]. […] In addition, the change in articular cartilage thickness and the number of cyclooxygenase (COX)-2- and tumor necrosis factor (TNF)-α-immunopositive cells in the tibial articular cartilage was monitored [Moore et al. 2005; Kim et al., 2012; Kang et al., 2014a; Choi et al., 2015]. Through this experiment, the anti-inflammatory effect and cartilage-regenerating effect of the pomegranate concentrate powder, the eucommia bark extract and the achyranthis radix extract were evaluated.
(§2) An adequate amount of PCP, EC or AR was dissolved in sterilized distilled water and orally administered at a dosage of 5 mL/kg from 7 days after the osteoarthritis (OA) surgery once a day for 28 days. That is to say, each of the single formulas of PCP, EC and AR and the mixed formulas of PCP and EC:AR (1:1, 1:2, 1:4, 1:6, 1:8, 2:1, 4:1, 6:1 and 8:1) was orally administered at a dosage of 200 mg/kg for 28 days. […]

[2] = test system: chondrogenesis-related mRNAs (collagen type II, SOX9 and aggrecan); assay: Osteoarthritis rat model: chondrogenesis-related mRNA expression; conditions: diclofenac subcutaneous
Method: as §1, §2

collagen type II mRNA = assay: Osteoarthritis rat model: collagen type II mRNA expression in articular cartilage and joint capsule; conditions: OA rats, 200 mg/kg oral 28 days (diclofenac 2 mg/kg s.c.), mean ± SD
Method: as §1
An adequate amount of PCP, EC or AR was dissolved in sterilized distilled water and orally administered at a dosage of 5 mL/kg from 7 days after the osteoarthritis (OA) surgery once a day for 28 days. That is to say, each of the single formulas of PCP, EC and AR and the mixed formulas of PCP and EC:AR (1:1, 1:2, 1:4, 1:6, 1:8, 2:1, 4:1, 6:1 and 8:1) was orally administered at a dosage of 200 mg/kg for 28 days. For the sham surgery (sham) and osteoarthritis (OA) control groups, only sterilized distilled water was orally administered instead of the test substances. 2 mg of diclofenac sodium (Wako Pure Chemical Ind. Ltd., Osaka, Japan) dissolved in 5 mL of sterilized physiological saline was subcutaneously administered into the back skin at a dosage of 5 mL/kg (2 mg/kg) from 7 days after the osteoarthritis (OA) surgery once a day for 28 days. The administration dosage was set to 2,000 mg/60 kg×6=200 mg/kg, corresponding to 6 times the expected dosage for human (2,000 mg) in consideration of the body surface area of the rat. […]

[3] = test system: rats with surgically-induced osteoarthritis (OA); assay: Osteoarthritis rat model: BrdU-immunopositive cells (cell proliferation); conditions: vs OA control group
Method: as §1, §2

Which knee joint thickness [1] does the source give for `O=C(O)Cc1ccccc1Nc1c(Cl)cccc1Cl` [Diclofenac, diclofenac sodium] here?
The knee joint thickness was “significant (p<0.01 or p<0.05) decrease in knee joint thickness”.

And the “expression of collagen type II, SOX9 and aggrecan mRNAs in the femoral and tibial articular cartilage” value [2]?
The value was “increased expression”.

And the “Collagen type II mRNA expressions, Femur AC” value (collagen type II mRNA)?
Its value is 0.69 ± 0.10^ab.

And the “Collagen type II mRNA expressions, Tibia AC” value (collagen type II mRNA)?
Its value is 0.64 ± 0.11^ij.

What about the “Collagen type II mRNA expressions, SM” value (collagen type II mRNA; SM not defined, text speaks of joint capsule) of the same compound?
Its value is 2.74 ± 0.95^ij.

And the “number of BrdU-immunopositive cells in the joint capsule” value [3]?
The value was “decrease in the number of BrdU-immunopositive cells in the joint capsule”.
